In PubChem BioAssay (NCI):
“And” between values parts separate entries of the source, which are not always exact repeats. Equal values may be shown once.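 Grown in 96-well plates, cells were treated for 48 hours with each compound at five concentrations. Insufficient inhibition: endpoint recorded as highest concentration tested. Abbreviation: GI50, concentration required for 50% inhibition of growth. TGI marks complete inhibition of growth.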

How the values were obtained:
Test in all cases: NCI anticancer screen, dose series, 48 h
[1] = tested on: CCRF-CEM leukemia
[2] = tested on: NCI-H226 lung
[3] = tested on: HCC-2998 colon
[4] = tested on: MOLT-4 leukemia
[5] = tested on: HT29 colon
[6] = tested on: A498 renal
[7] = tested on: UACC-257 melanoma
[8] = tested on: M14 melanoma
[9] = tested on: NCI/ADR-RES ovarian
[10] = tested on: MDA-MB-231 breast

| Compound | TGI [1] | TGI [2] | TGI [3] | TGI [4] | TGI [5] | TGI [6] | TGI [7] | TGI [8] | TGI [9] | TGI [10] | GI50 [1] | GI50 [2] | GI50 [9] | GI50 [3] | GI50 [6] | GI50 [10] | GI50 [4] | GI50 [8] | GI50 [7] | GI50 [5] |
| --- | --- | --- | --- | --- | --- | --- | --- | --- | --- | --- | --- | --- | --- | --- | --- | --- | --- | --- | --- | --- |
| NNC(=O)CCC(=O)Nc1cc(Cl)c(Cl)cc1Cl | > 100 µM | > 100 µM | > 100 µM | > 100 µM | > 100 µM | > 100 µM | > 100 µM | > 100 µM | – | – | – | – | – | – | – | – | – | – | – | – |
| COc1ccc(C2=NN(C(=O)COc3ccc(Cl)cc3)C(O)(c3ccc(Cl)cc3)C2)cc1 (stereo not drawn) | – | > 100 µM | > 100 µM | > 100 µM | > 100 µM | – | > 100 µM | > 100 µM | – | – | – | – | – | – | – | – | – | – | – | – |
| COCC1N=C(c2cc(OC)c(OC)c(OC)c2-c2cc3c(cc2C2OCCCO2)OCO3)O[C@H]1c1ccccc1 (stereo partly drawn) | > 100 µM | > 100 µM | > 100 µM | > 100 µM | > 100 µM | > 100 µM | > 100 µM | > 100 µM | – | – | – | – | – | – | – | – | – | – | – | – |
| CC1CC(c2cccc3c2OCO3)=Nc2ccccc2S1 (stereo not drawn) | > 100 µM | > 100 µM | > 100 µM | > 100 µM | > 100 µM | > 100 µM | > 100 µM | > 100 µM | – | – | – | – | – | – | – | – | – | – | – | – |
| CC(/C(=N/NC(=O)C(N)=O)c1c(Cl)ccc(Cl)c1O)C1(O)C(=O)Nc2ccccc21 (stereo not drawn) | 75.8 µM | > 100 µM | > 100 µM | – | > 100 µM | 76.9 µM | > 100 µM | > 100 µM | – | – | – | – | – | – | – | – | – | – | – | – |
| CS(=O)(=O)OCCn1cnc2nc(NC(=O)c3ccccc3)[nH]c(=O)c21 | > 100 µM | > 100 µM | – | – | > 100 µM | > 100 µM | > 100 µM | > 100 µM | – | – | – | – | – | – | – | – | – | – | – | – |
| CC1=C(C(=O)Nc2cccc(Cl)c2)C(c2ccc([N+](=O)[O-])cc2)C(C(=O)Nc2cccc(Cl)c2)=C(C)N1 | > 100 µM | 84.5 µM | 48.2 µM | 56.2 µM | 35 µM | > 100 µM | 38.2 µM | 42.1 µM | – | – | – | – | – | – | – | – | – | – | – | – |
| O=c1[nH]nc2ccccc2c1Cl | 34.9 µM | 52.8 µM | 7.27 µM | 36.8 µM | 23.6 µM | 33.2 µM | 29.7 µM | 25.6 µM | – | – | – | – | – | – | – | – | – | – | – | – |
| CCOC(=O)C1=C(NNC(=O)Cc2ccccc2)CSC1=Nc1ccccc1 | > 100 µM | > 100 µM | > 100 µM | > 100 µM | > 100 µM | > 100 µM | > 100 µM | > 100 µM | – | – | – | – | – | – | – | – | – | – | – | – |
| C=C1C(=O)OC2C1CC[C@H](C)C13OC(=O)CC1[C@@]23C (stereo partly drawn) | > 100 µM | > 100 µM | > 100 µM | > 100 µM | > 100 µM | > 100 µM | > 100 µM | – | – | – | – | – | – | – | – | – | – | – | – | – |
| CN(CC(=O)O)c1ccc(/C=C/c2ccnc3ccccc23)cc1 | 72.5 µM | – | 53 µM | – | 66.6 µM | 47.1 µM | 65.4 µM | 67.7 µM | > 100 µM | > 100 µM | – | – | – | – | – | – | – | – | – | – |
| O=c1c(Sc2c(O)c3ccccc3c3ccccc3c2=O)c(O)c2ccccc2c2ccccc12 | 56.6 µM | – | > 100 µM | 73.8 µM | > 100 µM | – | > 100 µM | > 100 µM | – | – | – | – | – | – | – | – | – | – | – | – |
| COc1ccc(-c2cc(-c3ccccc3)nc(N3CCN(CCNc4ccnc5cc(Cl)ccc45)CC3)n2)cc1 | > 100 µM | 25.1 µM | 3.02 µM | – | – | 20.7 µM | – | – | 4.04 µM | 3.43 µM | 2.19 µM | 4.14 µM | 1.72 µM | 1.46 µM | 8.15 µM | 1.81 µM | – | – | – | – |
| Cn1ccc2c(c1=O)C(=O)c1nccc3c1c-2nc1ccccc13 | > 100 µM | 26.4 µM | 3.15 µM | 7.01 µM | – | 25.9 µM | – | 3.52 µM | – | 3.13 µM | 2.21 µM | 12.5 µM | – | 1.72 µM | 12.5 µM | 1.64 µM | 2.26 µM | 1.84 µM | – | – |
| Fc1cccc2cc3ccc4cccc5ccc(c12)c3c45 | > 100 µM | > 100 µM | > 100 µM | > 100 µM | > 100 µM | > 100 µM | > 100 µM | > 100 µM | – | – | – | – | – | – | – | – | – | – | – | – |
| CC(=O)Nc1ccc(/C=N\N2C(=O)c3ccccc3C2=O)cc1 | > 100 µM | > 100 µM | > 100 µM | > 100 µM | > 100 µM | > 100 µM | > 100 µM | > 100 µM | – | – | – | – | – | – | – | – | – | – | – | – |
| COC(C(=O)C(O)C(C)O)C1Cc2cc3cc(OC4CC(OC(C)=O)C(OC5CC(O)C(OC)C(C)O5)C(C)O4)cc(O)c3c(O)c2C(=O)C1OC1CC(OC2CC(OC3CC(C)(O)C(OC(=O)C(C)C)C(C)O3)C(O)C(C)O2)C(O)C(C)O1 (stereo not drawn) | – | 0.148 µM and 0.0893 µM | – | 0.306 µM and 0.147 µM | 0.991 µM and 3.48 µM and 2.1 µM | – | 0.0977 µM and 0.0249 µM and < 0.0492 µM | 0.257 µM and 0.0292 µM | 63.7 µM and > 100 µM | 0.551 µM | – | – | – | – | 0.154 µM and 0.0248 µM | – | – | – | 0.00348 µM and < 0.0155 µM | – |
| CN(C)CCNC(=O)c1ccc(C(=O)NCCN(C)C)c2nc3ccccc3cc12 | 10.2 µM | 3.6 µM | 2.98 µM | 1.56 µM | 6.15 µM | 3.93 µM | 4.47 µM | 3.44 µM | – | – | – | – | – | – | – | – | – | – | – | – |
| CCCCCCCCC(=O)N(C)C1C2CN3CCC(O2)C13 (stereo not drawn) | > 100 µM | > 100 µM | > 100 µM | > 100 µM | > 100 µM | > 100 µM | > 100 µM | > 100 µM | – | – | – | – | – | – | – | – | – | – | – | – |
| [C-]#[O+].[C-]#[O+].[C-]#[O+].[C-]#[O+].[Ir].[Ir].[O-]c1ccc2ccccc2c1C=Nc1ccc(N=Cc2c([O-])ccc3ccccc23)cc1 | > 100 µM | > 100 µM | > 100 µM | > 100 µM | > 100 µM | – | > 100 µM | > 100 µM | – | – | 66 µM | > 100 µM | – | > 100 µM | – | – | 37.1 µM | > 100 µM | > 100 µM | > 100 µM |
| CCN1CCN(CC(=O)Nc2nc3ccc(NCc4ccc(Cl)cc4)cc3s2)CC1 | 8.22 µM | – | – | 5.78 µM | 4.61 µM | 17 µM | 6.86 µM | 3.63 µM | > 100 µM | 4.02 µM | 2.43 µM | – | 2.88 µM | – | 4.09 µM | 1.89 µM | 2.23 µM | 1.86 µM | 2.65 µM | 2.02 µM |
| Cc1ccc(S(=O)(=O)NNC(=O)c2sc(-c3nc(C)c(C(=O)NNS(=O)(=O)c4ccc(C)cc4)s3)nc2C)cc1 | > 100 µM | > 100 µM | > 100 µM | > 100 µM | > 100 µM | > 100 µM | > 100 µM | > 100 µM | – | – | – | – | – | – | – | – | – | – | – | – |
| CC1CC2C(=O)N(c3ccccc3)C(=O)C2c2c1c1ccccc1n2Cc1ccccc1 (stereo not drawn) | > 100 µM | > 100 µM | – | > 100 µM | > 100 µM | – | – | > 100 µM | – | – | – | – | – | – | – | – | – | – | – | – |
